{
  "source": "patent US4152436A",
  "about": "“Acylated pentadienone hydrazone, method for preparing the same, and use as fire ant control agents” (American Cyanamid Company, priority 1978, dated 1979)",
  "key": {"[1]": {"test": "Solubility in soybean oil", "type": "physicochemical", "text": "Determination of the Solubility of the Compounds of the Invention in Soybean Oil\nThe sample of the compound is then reweighed, the difference between the initial and final weights corresponding to the weight of the compound in solution."}, "[2]": {"system": "Tobacco Budworm [Heliothis virescens (Fabricius)]", "test": "Insecticide test, tobacco budworm 1st instar (eggs / newly hatched larvae on dipped cotton leaf)", "type": "in vivo", "details": "72 h, read-out: % kill, Tobacco Budworm 1st Instar", "description": "Tobacco Budworm [Heliothis virescens (Fabricius)]\nA cotton plant with 2 true leaves expanded is dipped for 3 seconds with agitation in a 300 ppm solution. A 1.25 to 2 cm square of cheesecloth with about 50 to 100 budworm eggs 0-24 hours old is also dipped in the test solution and placed on one leaf to dry. The leaf with the treated budworm eggs is removed from the plant and placed in a 236.6 ml (8-oz) Dixie cup with a wet 5 cm piece of dental wick and covered with a lid. The other leaf is placed in a similar cup with a wick and a piece of cheesecloth infested with 50-100 newly hatched larvae is added before covering the cup with a lid. After 3 days at 26.7° C., observations of egg hatch are made as well as kill of newly hatched larvae, any inhibition of feeding, or interference of any sort with normal development.\n(§1) Compounds rated active (8 or 9) are further tested at reduced concentrations in 50% acetone:50% water."}, "[3]": {"system": "Tobacco Budworm [Heliothis virescens (Fabricius)]", "test": "whole plant or invertebrate", "type": "in vivo", "details": "72 h, read-out: % kill, Tobacco Budworm 3rd Instar", "description": "Third Instar Three cotton plants with just expanded cotyledons are dipped in a 1000 ppm solution, and placed in a hood to dry. When dry, each cotyledon is cut in half and each half is placed in one of ten 29.6 ml plastic medicine cups containing a 1.25 cm dental wick saturated with water, and one third instar budworm larva is added. The cup is capped and held for 3 days at 26.7° C., after which mortality counts are made. Compounds rated active (8 or 9) are further tested at reduced concentrations in 50% acetone:50% water."}, "[4]": {"system": "Southern Armyworm [Spodoptera eridania (Cramer)]", "test": "whole plant or invertebrate", "type": "in vivo", "details": "for mortality at 10 ppm / mortality at 100 ppm / mortality at 1000 ppm: 48 h, read-out: % kill, Southern Armyworm 3rd Instar; for pest or weed control at 1000 µg/mL: 168 h, second leaf, 7 days from original treatment, read-out: % kill, Southern Armyworm 3rd Instar, 7 days (residual activity)", "description": "Southern Armyworm [Spodoptera eridania ([…] bean plant with just the primary leaves expanded to 7.6 to 10 cm is dipped for 3 seconds with agitation in a 1000 ppm solution and set in a hood to dry. […] The dish is covered and held at 26.7° C. After 2 days mortality counts and estimates of the amount of feeding are made. Compounds showing partial kill and/or inhibition of feeding are held for an extra day for further observations. All compounds showing activity as defined above are retested, using the second leaf on the bean plant, after an interval of 7 days from original treatment, as an assay of residual activity. Compounds rated active (8 or 9) are further tested at reduced concentrations in 50% acetone:50% water."}, "[5]": {"system": "Cabbage Looper [Trichoplusia ni (Hubner)]", "test": "Insecticide test, cabbage looper 3rd instar", "type": "in vivo", "details": "48 h, 2 days, 26.7° C., read-out: % kill, Cabbage Looper 3rd Instar", "description": "Cabbage Looper [Trichoplusia ni (Hubner)]\nA primary leaf of a cotton plant is dipped in the test solution and agitated for 3 seconds. It is then set in a hood to dry. Following this, the leaf is placed in a 10 cm petri dish containing a moist filter paper at the bottom and 10 third-instar loopers. The dish is covered and held at 26.7° C. After 2 days, mortality counts and estimates of feeding damage are recorded. Those materials showing partial kill and/or inhibition of feeding are held for another day for further observations.\nas §1"}},
  "data": [
    {"compound": "CC1(C)CN=C(NN=C(C=Cc2ccc(C(F)(F)F)cc2)C=Cc2ccc(C(F)(F)F)cc2)NC1", "values": [
      {"measurement": "Solubility in Soybean oil, In % of w/w", "setting": "[1]", "result": "0.1 % of w/w"},
      {"measurement": "Solubility in Soybean oil, In g/g of oil", "setting": "[1]", "result": "0.001 g/g of oil"}
    ]},
    {"compound": "CCCCCCCCCCCCCCCC(=O)N1CC(C)(C)CN=C1NN=C(C=Cc1ccc(C(F)(F)F)cc1)C=Cc1ccc(C(F)(F)F)cc1", "note": "[R1=CF3, R3=n-C15 H31]", "values": [
      {"measurement": "mortality at 100 ppm", "setting": "[2]", "result": "0 to 40", "unit": "%"},
      {"measurement": "mortality at 300 ppm", "setting": "[2]", "result": "86 to 95", "unit": "%"},
      {"measurement": "mortality at 10 ppm", "setting": "[3]", "result": 0, "unit": "%"},
      {"measurement": "mortality at 100 ppm", "setting": "[3]", "result": 30, "unit": "%"},
      {"measurement": "mortality at 1000 ppm", "setting": "[3]", "result": 100, "unit": "%"},
      {"measurement": "mortality at 10 ppm", "setting": "[4]", "result": 0, "unit": "%"},
      {"measurement": "mortality at 100 ppm", "setting": "[4]", "result": 100, "unit": "%"},
      {"measurement": "mortality at 1000 ppm", "setting": "[4]", "result": 100, "unit": "%"},
      {"measurement": "pest or weed control at 1000 µg/mL", "setting": "[4]", "result": 80, "unit": "%"},
      {"measurement": "mortality at 10 ppm", "setting": "[5]", "result": 0, "unit": "%"},
      {"measurement": "mortality at 100 ppm", "setting": "[5]", "result": 60, "unit": "%"},
      {"measurement": "mortality at 1000 ppm", "setting": "[5]", "result": 100, "unit": "%"}
    ]},
    {"compound": "CC(=O)N1CC(C)(C)CN=C1NN=C(C=Cc1ccc(Cl)cc1)C=Cc1ccc(Cl)cc1", "note": "[R1=Cl, R3=CH3]", "values": [
      {"measurement": "mortality at 10 ppm", "setting": "[2]", "result": "0 to 40", "unit": "%"},
      {"measurement": "mortality at 100 ppm", "setting": "[2]", "result": 100, "unit": "%"},
      {"measurement": "mortality at 10 ppm", "setting": "[3]", "result": 0, "unit": "%"},
      {"measurement": "mortality at 100 ppm", "setting": "[3]", "result": 100, "unit": "%"},
      {"measurement": "mortality at 1000 ppm", "setting": "[3]", "result": 100, "unit": "%"},
      {"measurement": "mortality at 100 ppm", "setting": "[4]", "result": 100, "unit": "%"},
      {"measurement": "mortality at 1000 ppm", "setting": "[4]", "result": 100, "unit": "%"},
      {"measurement": "mortality at 10 ppm", "setting": "[5]", "result": 0, "unit": "%"},
      {"measurement": "mortality at 100 ppm", "setting": "[5]", "result": 100, "unit": "%"},
      {"measurement": "mortality at 1000 ppm", "setting": "[5]", "result": 100, "unit": "%"}
    ]},
    {"compound": "CC(=O)N1CC(C)(C)CN=C1NN=C(C=Cc1ccc(C(F)(F)F)cc1)C=Cc1ccc(C(F)(F)F)cc1", "note": "[drawing 31]", "values": [
      {"measurement": "Solubility in Soybean oil, In % of w/w", "setting": "[1]", "result": "0.3 % of w/w"},
      {"measurement": "Solubility in Soybean oil, In g/g of oil", "setting": "[1]", "result": "0.003 g/g of oil"}
    ]},
    {"compound": "CC1(C)CN=C(NN=C(C=Cc2ccc(C(F)(F)F)cc2)C=Cc2ccc(C(F)(F)F)cc2)N(C(=O)c2ccccc2)C1", "note": "[drawing 32]", "values": [
      {"measurement": "Solubility in Soybean oil, In % of w/w", "setting": "[1]", "result": "0.4 % of w/w"},
      {"measurement": "Solubility in Soybean oil, In g/g of oil", "setting": "[1]", "result": "0.004 g/g of oil"}
    ]},
    {"compound": "CCCCCCCCCCCCCCCC(=O)N1CC(C)(C)CN=C1NN=C(C=Cc1ccc(C(F)(F)F)cc1)C=Cc1ccc(C(F)(F)F)cc1", "note": "[drawing 33]", "values": [
      {"measurement": "Solubility in Soybean oil, In % of w/w", "setting": "[1]", "result": "2.0 % of w/w"},
      {"measurement": "Solubility in Soybean oil, In g/g of oil", "setting": "[1]", "result": "0.02 g/g of oil"}
    ]},
    {"compound": "CC1(C)CN=C(NN=C(C=Cc2ccc(C(F)(F)F)cc2)C=Cc2ccc(C(F)(F)F)cc2)N(C(=O)c2ccccc2)C1", "note": "[drawing 35]", "values": [
      {"measurement": "mortality at 100 ppm", "setting": "[2]", "result": "0 to 40", "unit": "%"},
      {"measurement": "mortality at 10 ppm", "setting": "[3]", "result": 0, "unit": "%"},
      {"measurement": "mortality at 100 ppm", "setting": "[3]", "result": 100, "unit": "%"},
      {"measurement": "mortality at 1000 ppm", "setting": "[3]", "result": 100, "unit": "%"},
      {"measurement": "mortality at 10 ppm", "setting": "[4]", "result": 0, "unit": "%"},
      {"measurement": "mortality at 100 ppm", "setting": "[4]", "result": 100, "unit": "%"},
      {"measurement": "mortality at 1000 ppm", "setting": "[4]", "result": 100, "unit": "%"},
      {"measurement": "pest or weed control at 1000 µg/mL", "setting": "[4]", "result": 100, "unit": "%"},
      {"measurement": "mortality at 10 ppm", "setting": "[5]", "result": 0, "unit": "%"},
      {"measurement": "mortality at 100 ppm", "setting": "[5]", "result": 100, "unit": "%"},
      {"measurement": "mortality at 1000 ppm", "setting": "[5]", "result": 100, "unit": "%"}
    ]}
  ]
}
